Measured values: patent publication US20110166136A1, “Calcium Ion Channel Modulators & Uses Thereof” (LECTUS THERAPEUTICS LIMITED, priority 2008, published 2011)

Key:
[1] = molecular target: T1, N-type/Cav2.2 channels (Homo sapiens, UniProt Q00975); assay: Whole-cell patch-clamp recording of barium currents carried by calcium channels in primary dorsal root ganglion neurons; assay type: cell-based; conditions: 0.5 Hz stimulation, 100-ms steps to 0 mV from -70 mV, DRG neurons with Cm <40 pf
T1 construct: Primary dorsal root ganglion neurons were isolated using standard techniques; endogenous in cells
T1 sequence (Q00975 whole entry): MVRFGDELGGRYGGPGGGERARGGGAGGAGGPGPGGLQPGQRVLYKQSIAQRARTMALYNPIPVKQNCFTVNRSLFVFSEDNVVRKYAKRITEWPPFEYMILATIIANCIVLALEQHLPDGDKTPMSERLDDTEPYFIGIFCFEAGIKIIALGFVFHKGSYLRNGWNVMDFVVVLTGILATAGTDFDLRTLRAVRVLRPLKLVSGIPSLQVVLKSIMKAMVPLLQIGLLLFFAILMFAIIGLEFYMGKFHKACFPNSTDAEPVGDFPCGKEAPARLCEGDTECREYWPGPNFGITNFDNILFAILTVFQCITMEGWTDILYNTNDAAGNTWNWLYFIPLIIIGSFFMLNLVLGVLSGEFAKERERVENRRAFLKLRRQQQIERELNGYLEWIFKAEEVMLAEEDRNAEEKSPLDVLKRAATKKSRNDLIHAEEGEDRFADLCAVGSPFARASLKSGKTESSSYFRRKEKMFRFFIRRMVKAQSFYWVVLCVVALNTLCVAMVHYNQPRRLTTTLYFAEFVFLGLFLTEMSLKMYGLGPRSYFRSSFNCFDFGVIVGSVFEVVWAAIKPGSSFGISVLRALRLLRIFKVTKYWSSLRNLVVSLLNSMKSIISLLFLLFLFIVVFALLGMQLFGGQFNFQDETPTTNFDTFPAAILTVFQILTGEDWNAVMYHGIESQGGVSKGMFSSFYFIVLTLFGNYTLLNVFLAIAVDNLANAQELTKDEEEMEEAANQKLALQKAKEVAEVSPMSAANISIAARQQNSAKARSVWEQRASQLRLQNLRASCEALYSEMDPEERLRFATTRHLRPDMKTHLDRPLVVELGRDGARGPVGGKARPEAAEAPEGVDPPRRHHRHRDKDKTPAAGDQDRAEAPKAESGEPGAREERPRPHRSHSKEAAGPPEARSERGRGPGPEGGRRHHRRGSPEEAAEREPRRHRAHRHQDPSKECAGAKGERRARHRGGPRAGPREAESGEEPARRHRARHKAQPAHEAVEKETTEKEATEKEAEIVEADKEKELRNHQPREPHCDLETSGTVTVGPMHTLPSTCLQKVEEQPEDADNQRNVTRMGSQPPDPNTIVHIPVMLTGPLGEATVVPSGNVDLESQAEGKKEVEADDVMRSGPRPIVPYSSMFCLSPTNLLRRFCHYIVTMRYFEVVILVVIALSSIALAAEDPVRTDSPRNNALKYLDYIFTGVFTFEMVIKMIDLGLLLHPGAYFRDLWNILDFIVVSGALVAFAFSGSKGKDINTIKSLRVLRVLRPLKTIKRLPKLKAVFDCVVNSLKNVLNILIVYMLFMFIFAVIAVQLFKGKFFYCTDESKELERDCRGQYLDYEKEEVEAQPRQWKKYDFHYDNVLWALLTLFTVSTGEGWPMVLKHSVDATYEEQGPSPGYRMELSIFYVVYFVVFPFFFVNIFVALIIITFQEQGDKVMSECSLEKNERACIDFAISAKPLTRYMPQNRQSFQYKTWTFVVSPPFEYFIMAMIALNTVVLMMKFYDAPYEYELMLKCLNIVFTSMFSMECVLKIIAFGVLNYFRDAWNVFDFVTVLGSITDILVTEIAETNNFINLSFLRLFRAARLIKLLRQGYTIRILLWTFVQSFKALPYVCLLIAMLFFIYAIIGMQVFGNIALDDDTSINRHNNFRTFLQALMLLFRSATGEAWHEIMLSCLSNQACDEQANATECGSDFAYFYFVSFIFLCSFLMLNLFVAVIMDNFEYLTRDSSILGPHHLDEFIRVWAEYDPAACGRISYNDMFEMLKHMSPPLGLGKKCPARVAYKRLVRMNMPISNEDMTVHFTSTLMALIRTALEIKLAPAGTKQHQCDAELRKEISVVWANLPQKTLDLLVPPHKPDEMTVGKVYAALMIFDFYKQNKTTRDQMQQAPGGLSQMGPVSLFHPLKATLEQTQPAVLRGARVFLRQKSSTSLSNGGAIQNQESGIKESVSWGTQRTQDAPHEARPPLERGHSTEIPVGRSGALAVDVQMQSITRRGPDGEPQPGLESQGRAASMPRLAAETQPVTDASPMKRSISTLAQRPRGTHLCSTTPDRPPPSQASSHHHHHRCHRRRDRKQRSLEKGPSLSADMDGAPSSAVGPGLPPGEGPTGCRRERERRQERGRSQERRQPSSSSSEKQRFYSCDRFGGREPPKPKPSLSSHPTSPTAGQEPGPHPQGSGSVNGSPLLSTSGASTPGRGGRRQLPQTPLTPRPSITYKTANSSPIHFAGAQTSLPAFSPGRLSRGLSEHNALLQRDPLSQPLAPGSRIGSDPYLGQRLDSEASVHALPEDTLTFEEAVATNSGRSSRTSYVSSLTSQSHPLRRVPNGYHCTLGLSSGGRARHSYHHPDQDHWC
T1 sequence (P54289 25-956 partner limits assumed): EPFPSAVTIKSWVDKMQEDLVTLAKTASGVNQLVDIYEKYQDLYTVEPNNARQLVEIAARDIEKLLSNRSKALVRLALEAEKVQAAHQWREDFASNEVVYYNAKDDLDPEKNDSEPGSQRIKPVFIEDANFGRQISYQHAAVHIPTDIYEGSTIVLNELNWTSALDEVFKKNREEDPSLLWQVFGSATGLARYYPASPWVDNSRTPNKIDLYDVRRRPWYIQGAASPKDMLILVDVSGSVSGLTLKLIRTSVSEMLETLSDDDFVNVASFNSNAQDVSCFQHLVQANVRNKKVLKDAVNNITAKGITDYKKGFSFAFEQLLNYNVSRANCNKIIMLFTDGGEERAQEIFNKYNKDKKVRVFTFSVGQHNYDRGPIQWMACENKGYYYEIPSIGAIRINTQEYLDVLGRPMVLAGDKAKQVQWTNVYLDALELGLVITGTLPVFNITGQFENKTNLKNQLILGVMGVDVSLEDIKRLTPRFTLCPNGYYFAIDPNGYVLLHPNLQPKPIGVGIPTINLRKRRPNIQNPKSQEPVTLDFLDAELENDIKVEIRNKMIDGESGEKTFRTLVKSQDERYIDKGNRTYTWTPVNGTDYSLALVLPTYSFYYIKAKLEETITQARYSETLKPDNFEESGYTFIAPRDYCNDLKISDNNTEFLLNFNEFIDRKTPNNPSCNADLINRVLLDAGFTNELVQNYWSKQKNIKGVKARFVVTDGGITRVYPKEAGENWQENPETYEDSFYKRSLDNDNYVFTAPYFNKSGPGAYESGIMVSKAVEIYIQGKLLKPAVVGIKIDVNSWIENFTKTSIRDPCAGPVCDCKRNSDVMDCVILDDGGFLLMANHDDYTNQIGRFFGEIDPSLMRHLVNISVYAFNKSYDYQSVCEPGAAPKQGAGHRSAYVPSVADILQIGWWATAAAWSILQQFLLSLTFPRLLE
T1 sequence (P54289 957-1103 partner limits assumed): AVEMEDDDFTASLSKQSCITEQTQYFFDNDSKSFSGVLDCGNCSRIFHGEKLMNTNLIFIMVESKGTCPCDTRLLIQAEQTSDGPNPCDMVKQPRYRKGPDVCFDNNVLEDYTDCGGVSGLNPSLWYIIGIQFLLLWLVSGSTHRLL
Description: Primary dorsal root ganglion neurons were isolated using standard techniques and placed in Ca^2+/Mg^2+ free phosphate-buffered saline (PBS). Hemisection of the spinal column and cord was performed and the ganglia were uncovered by gently lifting the spinal cord. They were placed in a dissociation solution (PBS) containing 1 mg/ml Collagenase (type XI) and trypsin (type II-S). Ganglia were incubated in the dissociation solution for 20 minutes at room temperature, followed by 20 minutes at 37° C. Ganglia were washed in culture medium, Dulbecco's Minimum essential medium (DMEM), supplemented with fetal calf serum (10%, Gibco), penicillin/strepromycin and glutamine (Glutamax, Gibco). Cells were dispersed by trituration and plated on poly-L-lysine-coated 35-mm dishes (BD Bioscience). Cells were kept in culture in a humidified atmosphere (37° C., 5% CO2) for up to 4 days for electrophysiological recordings. Unless otherwise noted, all reagents were purchased from Sigma-Aldrich.
Barium currents carried by calcium channels were recorded using the whole-cell configuration of the patch-clamp technique. All experiments were carried out at room temperature. Cells were bathed in an external solution containing, in mM: TEA-CI, 140; BaCl2, 5; MgCl2, 1; HEPES, 10; pH 7.3 adjusted with TEA-OH. Ba^2+ was used as a charge carrier to prevent the run-down caused by Ca^2+-activated inactivation of Ca^2+ channels. […] Electrophysiological recordings were generated and acquired with a patch-clamp amplifier (Axopatch 200B, or Multiclamp 7; Molecular devices) connected to a personal computer. Online and offline analysis was carried out using the pClamp software suite (v.9, Molecular Devices). Compounds were all prepared from 100 mM stocks in 100% dimethyl sulfoxide (DMSO) and further diluted in external solution to achieve the desired final concentration. Final DMSO concentration was always <0.1%. For the assessment of activity of the compounds, only cells with a membrane capacitance (Cm)<40 pf were used, as the Ca2+ current in these cells is carried mostly through N-type/Cav2.2 channels. Cell membrane potential was held at −70 mV and currents were elicited by a series of 100-ms steps to 0 mV, at a frequency of 0.1 Hz. After the establishment of a steady baseline current, the compound was applied to the bath. When the block induced by the compound reached a steady level, the frequency was then increased to 0.5 Hz, to assess use-dependence. After stabilization of the high frequency block, step depolarizations were stopped and cell membrane potential was kept at −70 mV for 100-120 s, after which 0.1 Hz stimulation (100 ms, 0 mV) was elicited, to assess recovery of the block. ω-conotoxin GVIA (100 nM; Alomone labs) was added at the end of the experiment to quantify the remaining N-type current. Selectivity of the compounds over non-N-type currents was studied using similar stimulation protocols, in a bath solution containing ω-conotoxin GVIA (100 nM).

[2] = tested on: α2-δ voltage-gated calcium channel; conditions: compared with gabapentin; cited from earlier work
[3] = DRG neuron, compound concentration 1 uM

**Q.** With `O=C(O)C(=O)c1c[nH]c2cc(F)ccc12` [Compound 20, 2-(6-fluoro-1H-indol-3-yl)-2-oxoacetic acid] as the molecule, how does the inhibition at 1 µM [1, 3] read?
**A.** Its inhibition at 1 µM is 55%.

**Q.** With `COc1ccc2c(C(=O)C(=O)O)c[nH]c2c1` [Compound 31, 2-(6-methoxy-1H-indol-3-yl)-2-oxoacetic acid] as the molecule, how does the inhibition at 0.1 µM ([1]; DRG neuron, compound concentration 0.1 uM) read?
**A.** The inhibition at 0.1 µM was 36%.

**Q.** Which inhibition at 1 µM [1, 3] does the source give for `COc1ccc2c(C(=O)C(=O)N3CCOCC3)c[nH]c2c1` [Compound 57, 1-(6-methoxy-1H-indol-3-yl)-2-morpholinoethane-1,2-dione] here?
**A.** Its inhibition at 1 µM is 44%.

**Q.** Which inhibition at 1 µM [1, 3] does the source give for `COc1ccc2c(C(=O)C(=O)N3CCN(C)CC3)c[nH]c2c1` [Compound 77, 1-(6-methoxy-1H-indol-3-yl)-2-(4-methylpiperazin-1-yl)ethane-1,2-dione] here?
**A.** The inhibition at 1 µM was 55%.

**Q.** For `CC(C)C[C@H](CN)CC(=O)O` [Pregabalin, pregabalin], which “potency in binding affinity to the α2-δ voltage-gated calcium channel relative to gabapentin” value [2] is on record?
**A.** The value was “six-times more potent than gabapentin”.

**Q.** Which “% Inhibition at 0.5 Hz” value ([1]; compound concentration 1 uM) does the source give for “ethyl 2-(6-methoxy-1H-indol-3-yl)-2-oxoacetate [Compound 40]” here?
**A.** Its value is 57%.
